Structures are written as SMILES. Several values for one entry are separate records, joined by “and”; a condition that tells them apart may be missing. Identical values can stand only once. Inconclusive results and toxic doses are left out.

From PubChem BioAssay AID330 (DTP/NCI, 2004) come the findings set out here.

This test deals with P388 leukemia ip, CD2F1 mice, survival T/C. Put plainly: NCI In Vivo Anticancer Drug Screen. Data for tumor model P388 Leukemia (intraperitoneal) in CD2F1 (CDF1) mice. The settings on record: endpoint: median survival time, higher = longer survival. The method, boiled down: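 Mice carrying the transplanted tumor received test compound or vehicle. Survival was recorded in each group, and the value is the treated-group measurement divided by that of the vehicle-treated control group.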

Where [1] appears, read: dose: 60.0 mg/kg/injection, schedule: Q01DX005 (ip), vehicle: saline with Tween-80.
The mark [2] stands for this setting: dose: 120.0 mg/kg/injection, schedule: Q01DX005 (ip), vehicle: saline with Tween-80.
Setting [3] is: dose: 240.0 mg/kg/injection, schedule: Q01DX005 (ip), vehicle: saline with Tween-80.
Setting [4] is: dose: 100.0 mg/kg/injection, schedule: Q04DX002 (ip), vehicle: saline with Tween-80.
The mark [5] stands for this setting: dose: 200.0 mg/kg/injection, schedule: Q04DX002 (ip), vehicle: saline with Tween-80.
Where [6] appears, read: dose: 400.0 mg/kg/injection, schedule: Q04DX002 (ip), vehicle: saline with Tween-80.
Setting [7] is: dose: 50.0 mg/kg/injection, schedule: Q01DX005 (ip), vehicle: saline with Tween-80.
Setting [8] is: dose: 100.0 mg/kg/injection, schedule: Q01DX005 (ip), vehicle: saline with Tween-80.
Setting [9] is: dose: 200.0 mg/kg/injection, schedule: Q01DX005 (ip), vehicle: saline with Tween-80.
The mark [10] stands for this setting: dose: 6.25 mg/kg/injection, schedule: Q01DX009 (ip), vehicle: saline with Tween-80.
The mark [11] stands for this setting: dose: 12.5 mg/kg/injection, schedule: Q01DX009 (ip), vehicle: saline with Tween-80.
Where [12] appears, read: dose: 50.0 mg/kg/injection, schedule: Q01DX009 (ip), vehicle: saline with Tween-80.
Setting [13] is: dose: 100.0 mg/kg/injection, schedule: Q01DX009 (ip), vehicle: saline with Tween-80.
Where [14] appears, read: dose: 25.0 mg/kg/injection, schedule: Q01DX009 (ip), vehicle: saline with Tween-80.
[15] abbreviates: dose: 100.0 mg/kg/injection, schedule: Q01DX001 (ip), vehicle: Klucel (hydroxypropylcellulose) (HPC).
Setting [16] is: dose: 200.0 mg/kg/injection, schedule: Q01DX001 (ip), vehicle: Klucel (hydroxypropylcellulose) (HPC).
Setting [17] is: dose: 50.0 mg/kg/injection, schedule: Q01DX009 (ip), vehicle: saline.
Where [18] appears, read: dose: 100.0 mg/kg/injection, schedule: Q01DX009 (ip), vehicle: saline.
Setting [19] is: dose: 200.0 mg/kg/injection, schedule: Q01DX009 (ip), vehicle: saline.
The mark [20] stands for this setting: dose: 200.0 mg/kg/injection, schedule: Q01DX009 (ip), vehicle: saline with Tween-80.

`COc1ccc(NC(=O)CCCC(=O)CC(=O)c2ccc(Cl)cc2)c(OC)c1`: the T/C runs as follows: under setting [1], 109 % of control; under setting [2], 103 % of control; under setting [3], 101 % of control.
In the case of `COc1cccc2c1C(=O)c1c(O)c3c(c(O)c1C2=O)C[C@@](O)(C(O)O)C[C@@H]3OC1CC(N)C(O)C(C)O1` (stereo partly drawn), the T/C is 168 % of control (dose: 2.0 mg/kg/injection, schedule: Q01DX009 (ip), vehicle: water); 154 % of control (dose: 4.0 mg/kg/injection, schedule: Q01DX009 (ip), vehicle: water); 109 % of control and 121 % of control (dose: 100.0 mg/kg/injection, schedule: Q04DX003 (ip), vehicle: water).
On to `Cc1cc(O)c(CO)cc1C`, for which the T/C by setting is: under setting [4], 104 % of control; under setting [5], 110 % of control; under setting [6], 107 % of control.
For `Cc1cc(=O)n(-c2cc(C)c3cc(Cl)ccc3n2)[nH]1`, the T/C is 93 % of control (dose: 100.0 mg/kg/injection, schedule: Q01DX001 (ip), vehicle: saline with Tween-80); 94 % of control (dose: 200.0 mg/kg/injection, schedule: Q01DX001 (ip), vehicle: saline with Tween-80); 104 % of control (dose: 400.0 mg/kg/injection, schedule: Q01DX001 (ip), vehicle: saline with Tween-80).
As to `CCOC(=O)c1c(N)c(C(=O)c2ccccc2)n2ccc3ccccc3c12`, the T/C was 100 % of control under setting [4], 99 % of control under setting [5] and 92 % of control under setting [6].
Regarding `O=c1[nH]ccn1-c1ccccc1`, the T/C runs as follows: under setting [1], 102 % of control; under setting [2], 100 % of control; under setting [3], 97 % of control.
For the molecule `C=CC1OCCC(C)O1` (stereo not drawn), the T/C was 99 % of control (dose: 60.0 mg/kg/injection, schedule: Q01DX005 (ip), vehicle: saline); 100 % of control (dose: 120.0 mg/kg/injection, schedule: Q01DX005 (ip), vehicle: saline); 97 % of control (dose: 240.0 mg/kg/injection, schedule: Q01DX005 (ip), vehicle: saline).
As for `Cc1ccc(N2[C@H]3CCCN3c3ccc(C)cc3[C@@H]2C(F)(F)F)cc1`, the T/C runs as follows: under setting [7], 110 % of control; under setting [8], 100 % of control; under setting [9], 100 % of control.
In the case of `CCC12NC(=O)NC1(C)NC(=O)N2` (stereo not drawn), the T/C was 91 % of control under setting [10]; 91 % of control under setting [11]; 100 % of control (dose: 16.5 mg/kg/injection, schedule: Q01DX009 (ip), vehicle: saline with Tween-80).
In the case of `O=C1C(=O)c2ccccc2C(O)=C1CC=C(Br)Br`, the T/C runs as follows: under setting [12], 100 % of control; under setting [13], 100 % of control; (dose: 100.0 mg/kg/injection, schedule: Q04DX003 (ip), vehicle: saline with Tween-80) 100 % of control; (dose: 200.0 mg/kg/injection, schedule: Q04DX003 (ip), vehicle: saline with Tween-80) 110 % of control.
In the case of `[O-][n+]1c(CCl)nc2ccccc2c1-c1ccccc1F`, the T/C runs as follows: under setting [11], 103 % of control; under setting [14], 103 % of control; under setting [12], 103 % of control.
Turning to `Cc1nc2ncn(-c3ccccc3)c2c(=O)n1CC(C)C`, the T/C runs as follows: (dose: 50.0 mg/kg/injection, schedule: Q01DX005 (ip), vehicle: Klucel (hydroxypropylcellulose) (HPC)) 100 % of control; (dose: 100.0 mg/kg/injection, schedule: Q01DX005 (ip), vehicle: Klucel (hydroxypropylcellulose) (HPC)) 101 % of control; (dose: 200.0 mg/kg/injection, schedule: Q01DX005 (ip), vehicle: Klucel (hydroxypropylcellulose) (HPC)) 102 % of control.
Turning to `O=C(O)c1cn2c(n1)sc1ccccc12`, the T/C under setting [15] is 97 % of control; the T/C under setting [16] is 92 % of control; the T/C (dose: 400.0 mg/kg/injection, schedule: Q01DX001 (ip), vehicle: Klucel (hydroxypropylcellulose) (HPC)) was 96 % of control.
With `C/C(C/C(C)=N/O)=N/O`, the T/C reads like this: under setting [17], 99 % of control; under setting [18], 97 % of control; under setting [19], 91 % of control.
For `O=C(Nc1cccc2ccccc12)Oc1cccc2cccnc12`, the T/C is 89 % of control under setting [14], 86 % of control under setting [12] and 89 % of control under setting [13].
For the molecule `N#CC(C(=O)CCCC(=O)Nc1ccccc1[N+](=O)[O-])c1ccc(Cl)cc1Cl` (stereo not drawn), the T/C under setting [1] is 106 % of control, the T/C under setting [2] was 104 % of control and the T/C under setting [3] is 101 % of control.
For the molecule `CNC(=O)c1cc2ccccc2o/c1=N/NC(N)=O`, the T/C runs as follows: (dose: 100.0 mg/kg/injection, schedule: Q01DX001 (ip), vehicle: saline) 103 % of control; (dose: 200.0 mg/kg/injection, schedule: Q01DX001 (ip), vehicle: saline) 103 % of control; (dose: 400.0 mg/kg/injection, schedule: Q01DX001 (ip), vehicle: saline) 96 % of control.
Turning to `N=C(N)SCc1ccc(CSC(=N)N)s1`, the T/C is 107 % of control (dose: 7.5 mg/kg/injection, schedule: Q01DX009 (ip), vehicle: saline); 101 % of control (dose: 15.0 mg/kg/injection, schedule: Q01DX009 (ip), vehicle: saline); 117 % of control (dose: 30.0 mg/kg/injection, schedule: Q01DX009 (ip), vehicle: saline).
Consider `Nc1n[nH]c(CO)n1`, for which the T/C is 95 % of control (dose: 6.25 mg/kg/injection, schedule: Q01DX009 (ip), vehicle: saline); 91 % of control (dose: 12.5 mg/kg/injection, schedule: Q01DX009 (ip), vehicle: saline); 104 % of control (dose: 25.0 mg/kg/injection, schedule: Q01DX009 (ip), vehicle: saline); 99 % of control under setting [17].
Take `Cc1c2oc3c(C)ccc(C(=O)OCCN4CCCCC4)c3nc-2c(C(=O)OCCN2CCCCC2)c(N)c1=O`: the T/C is, setting by setting: under setting [10], 100 % of control; under setting [11], 99 % of control; under setting [14], 107 % of control; under setting [12], 113 % of control.
As for `CN(C)CCC(CCc1ccccc1)OC(=O)c1ccc([N+](=O)[O-])cc1` (stereo not drawn), the T/C runs as follows: (dose: 50.0 mg/kg/injection, schedule: Q04DX002 (ip), vehicle: saline) 102 % of control; (dose: 100.0 mg/kg/injection, schedule: Q04DX002 (ip), vehicle: saline) 107 % of control.
As for `COC1/C=C/OC2(C)Oc3c(C)c(O)c4c(c3C2=O)C(N)=C(Nc2ccccc2)C(=NC(=O)C(C)=CC=CC(C)C(O)C(C)C(O)C(C)C(OC(C)=O)C1C)C4=O` (stereo not drawn), the T/C (dose: 25.0 mg/kg/injection, schedule: Q01DX009 (ip), vehicle: Klucel (hydroxypropylcellulose) (HPC)) was 97 % of control; the T/C (dose: 50.0 mg/kg/injection, schedule: Q01DX009 (ip), vehicle: Klucel (hydroxypropylcellulose) (HPC)) is 94 % of control; the T/C (dose: 100.0 mg/kg/injection, schedule: Q01DX009 (ip), vehicle: Klucel (hydroxypropylcellulose) (HPC)) was 98 % of control; the T/C (dose: 200.0 mg/kg/injection, schedule: Q01DX009 (ip), vehicle: Klucel (hydroxypropylcellulose) (HPC)) is 86 % of control.
On to `COC(=O)C1(c2ccccc2)OP2(N(C)C)(OCCN2C)OC1(C(=O)OC)c1ccccc1` (stereo not drawn), for which the T/C by setting is: under setting [7], 104 % of control; under setting [8], 98 % of control; under setting [9], 91 % of control.
For the molecule `O=C1Cc2ccccc2N1C(=O)c1ccc(Br)cc1`, the T/C was 94 % of control under setting [15] and 90 % of control under setting [16].
As for `CCOC(=O)C(=O)c1cn(C)c(=O)n(C)c1=O`, the T/C under setting [12] was 106 % of control, the T/C under setting [13] is 104 % of control and the T/C under setting [20] was 104 % of control.
For the molecule `CC(=O)OCC1OC(n2cc(F)c(=O)[nH]c2=O)CC1OC(C)=O` (stereo not drawn), the T/C is, setting by setting: under setting [12], 100 % of control; under setting [13], 118 % of control; under setting [20], 86 % of control.
As to `CCNCC(=O)Nc1ccc(C2NC(=O)C(C)(C)c3ccccc32)cc1` (stereo not drawn), the T/C is 99 % of control under setting [17], 101 % of control under setting [18] and 97 % of control under setting [19].
